Reference: patent publication US20110003847A1, “Prasugrel Salts with Improved Properties” (HELM AG, priority 2008, published 2011)
Where a name gives a salt, the structure may show the parent alone.

Columns and labels:
[1] = Hygroscopicity of the salts; format: physicochemical
[2] = Corrosiveness of the salts; format: physicochemical
[3] = Storage of tablets at room temperature in an open container (discoloration); format: physicochemical; settings: tablets stored 9 days at room temperature (15-25° C.) in an open container
Protocol: Tablets were stored for 9 days at room temperature (15-25° C.) in an open container.

mammals = assay: Toxicity of prasugrel salts with regard to mammals; format: in vivo; settings: compared with other salts
From the text: Although the exact reason for this low toxicity hat not yet been found, it is assumed that this effect is due to a different solubility of the salts. The toxicity and safety margin of prasugrel can be controlled by varying the solubility of its salts.

| hygroscopicity [1] | discoloration of tablets on storage [3] | Compound | corrosiveness [2] | toxicity (mammals) |
| --- | --- | --- | --- | --- |
| not hygroscopic |  | CC(=O)Oc1cc2c(s1)CCN(C(C(=O)C1CC1)c1ccccc1F)C2.O=S(=O)(O)c1cccc2c(S(=O)(=O)O)cccc12 (stereo not shown) [prasugrel napadisylate, Prasugrel-1,5-Dinapsylate] | not corrosive |  |
| not hygroscopic |  | CC(=O)Oc1cc2c(s1)CCN(C(C(=O)C1CC1)c1ccccc1F)C2.O=S(=O)(O)c1ccc2ccccc2c1 (stereo not shown) [prasugrel napsylate, Prasugrel-2-Napsylate] | not corrosive |  |
|  | clear discoloration | CC(=O)Oc1cc2c(s1)CCN(C(C(=O)C1CC1)c1ccccc1F)C2 (stereo not shown) [prasugrel-HCl, Prasugrel-Hydrochloride] |  |  |

| Compound | hygroscopicity [1] | discoloration of tablets on storage [3] | corrosiveness [2] | toxicity (mammals) |
| --- | --- | --- | --- | --- |
| Prasugrel-Besylate [prasugrel besylate] | not hygroscopic |  |  | very low toxicity |
